Drawing on patent US10730874B2 (Shire Human Genetic Therapies, Inc., priority 2018, dated 2020), this text covers EC50 for 26 compounds.

Molecules are shown by their SMILES. Where only a bound is given, the exact number is not on record here.

The target in one assay is human activated kallikrein enzyme (plasma kallikrein) (Homo sapiens (Human), UniProt P03952). Description: Inhibition of human activated plasma kallikrein, fluorogenic peptide substrate assay, 500 pM enzyme format. It counts as biochemical. The conditions noted are these: 500 pM activated kallikrein enzyme, 300 uM Pro-Phe-Arg-7-amido-4-methylcoumarin substrate, 30 min preincubation, 10 min at RT; read-out: Primary Dose Response Assay: Average EC50. A digest of the protocol: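 Buffer 20 mM Tris pH 7.5, EDTA, NaCl, PEG-400, Triton X-100; 300 uM Pro-Phe-Arg-AMC; enzyme–inhibitor preincubation 30 min RT. Format one: 500 pM kallikrein, 10 min RT reaction; format two: 5 pM kallikrein, 18 h RT reaction. Fluorescence read at 460 nm (380 nm excitation).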
Chain of human activated kallikrein enzyme (plasma kallikrein) (P03952 391-638): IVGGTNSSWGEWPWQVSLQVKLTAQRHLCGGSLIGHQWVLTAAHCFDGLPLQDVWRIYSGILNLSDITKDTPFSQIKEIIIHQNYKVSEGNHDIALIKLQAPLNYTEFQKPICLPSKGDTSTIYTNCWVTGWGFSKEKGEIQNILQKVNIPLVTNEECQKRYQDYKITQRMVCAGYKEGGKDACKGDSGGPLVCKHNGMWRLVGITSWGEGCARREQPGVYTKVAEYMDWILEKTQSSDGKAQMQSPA
Chain of human activated kallikrein enzyme (plasma kallikrein) (P03952 20-390 partner): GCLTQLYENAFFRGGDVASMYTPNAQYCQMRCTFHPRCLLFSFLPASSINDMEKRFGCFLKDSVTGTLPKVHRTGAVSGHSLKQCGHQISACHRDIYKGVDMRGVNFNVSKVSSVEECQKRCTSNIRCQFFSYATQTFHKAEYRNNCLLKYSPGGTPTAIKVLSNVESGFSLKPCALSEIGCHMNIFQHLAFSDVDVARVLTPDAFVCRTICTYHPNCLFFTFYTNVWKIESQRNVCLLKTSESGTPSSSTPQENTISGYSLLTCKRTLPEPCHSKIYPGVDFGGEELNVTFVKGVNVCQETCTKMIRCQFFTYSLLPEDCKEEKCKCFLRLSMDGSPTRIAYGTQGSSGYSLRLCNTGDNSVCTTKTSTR
With `Cc1ncc(-c2cc(C3CC3)cn3cc(Cn4cc(C(=O)NCc5ncn6ccc(Cl)c(F)c56)nn4)nc23)s1` [Example I-257, N-((7-chloro-8-fluoroimidazo[1,5-a]pyridin-1-yl)methyl)-1-((6-cyclopropyl-8-(2-methylthiazol-5-yl)imidazo[1,2-a]pyridin-2-yl)methyl)-1H-1,2,3-triazole-4-carboxamide], the EC50 – broadly, the concentration giving half of the maximal effect – was less than 1 nM. In the case of `O=C(NCc1ncn2ccc(Cl)c(F)c12)c1ccn(Cc2cn3cc(C4CC4)ccc3n2)c1` [Example I-276, N-((7-chloro-8-fluoroimidazo[1,5-a]pyridin-1-yl)methyl)-1-((6-cyclopropylimidazo[1,2-a]pyridin-2-yl)methyl)-1H-pyrrole-3-carboxamide], the EC50 was less than 1 nM. On to `O=C(NCc1ncn2ccc(Cl)c(F)c12)c1cn(Cc2cn3cc(C4CC4)cc(F)c3n2)nn1` [Example I-171, N-((7-chloro-8-fluoroimidazo[1,5-a]pyridin-1-yl)methyl)-1-((6-cyclopropyl-8-fluoroimidazo[1,2-a]pyridin-2-yl)methyl)-1H-1,2,3-triazole-4-carboxamide], for which the EC50 was less than 1 nM.

With `N#Cc1cc(C2CC2)cn2cc(Cc3nnc(C(=O)NCc4ncn5ccc(Br)c(F)c45)o3)nc12` [Example I-154, N-((7-bromo-8-fluoroimidazo[1,5-a]pyridin-1-yl)methyl)-5-((8-cyano-6-cyclopropylimidazo[1,2-a]pyridin-2-yl)methyl)-1,3,4-oxadiazole-2-carboxamide], the EC50 is less than 1 nM. For `O=C(NCc1ncn2ccc(Cl)cc12)c1cnn(Cc2cn3cc(C4CC4)cnc3n2)c1` [Example I-129, N-((7-chloroimidazo[1,5-a]pyridin-1-yl)methyl)-1-((6-cyclopropylimidazo[1,2-a]pyrimidin-2-yl)methyl)-1H-pyrazole-4-carboxamide], the EC50 is less than 1 nM. Turning to `O=C(NCc1ncn2ccc(C3CC3)cc12)c1cnn(Cc2cn3cc(C4CC4)ccc3n2)c1` [Example I-48, 1-((6-cyclopropylimidazo[1,2-a]pyridin-2-yl)methyl)-N-((7-cyclopropylimidazo[1,5-a]pyridin-1-yl)methyl)-1H-pyrazole-4-carboxamide], the EC50 fell in the range of 100 to 2000 nM. As for `CC1CC1c1ccc2nc(Cn3cc(C(=O)NCc4ncn5ccc(Br)cc45)cn3)cn2c1` (centres unmarked) [Example I-44, N-((7-bromoimidazo[1,5-a]pyridin-1-yl)methyl)-1-((6-(2-methylcyclopropyl)imidazo[1,2-a]pyridin-2-yl)methyl)-1H-pyrazole-4-carboxamide], the EC50 is less than 1 nM. As for `C#Cc1ccn2cnc(CNC(=O)c3cnn(Cc4cn5cc(C6CC6)ccc5n4)c3)c2c1` [Example I-66, 1-((6-cyclopropylimidazo[1,2-a]pyridin-2-yl)methyl)-N-((7-ethynylimidazo[1,5-a]pyridin-1-yl)methyl)-1H-pyrazole-4-carboxamide], the EC50 was less than 1 nM. The same measure, in the same setting: with `O=C(NCc1ncn2ccc(Cl)cc12)c1nnc(Cc2cn3cc(C4CC4)ccc3n2)s1` [Example I-70, N-((7-chloroimidazo[1,5-a]pyridin-1-yl)methyl)-5-((6-cyclopropylimidazo[1,2-a]pyridin-2-yl)methyl)-1,3,4-thiadiazole-2-carboxamide] the figure was 10 to 100 nM. `O=C(NCc1ncn2ccc(Cl)c(F)c12)c1cn(Cc2cn3cc(C4CC4)cc(-c4cncs4)c3n2)nn1` [Example I-263, N-((7-chloro-8-fluoroimidazo[1,5-a]pyridin-1-yl)methyl)-1-((6-cyclopropyl-8-(thiazol-5-yl)imidazo[1,2-a]pyridin-2-yl)methyl)-1H-1,2,3-triazole-4-carboxamide]: the half-maximal effective concentration (EC50) was less than 1 nM. For `O=C(NCc1ncn2ccc(Cl)c(F)c12)c1cn(Cc2cn3cc(C4CC4)cc(C(F)(F)F)c3n2)nn1` [Example I-185, N-((7-chloro-8-fluoroimidazo[1,5-a]pyridin-1-yl)methyl)-1-((6-cyclopropyl-8-(trifluoromethyl)imidazo[1,2-a]pyridin-2-yl)methyl)-1H-1,2,3-triazole-4-carboxamide], the EC50 was less than 1 nM. On to `COC(=O)c1c(Cn2cc(C(=O)NCc3ncn4ccc(Cl)c(F)c34)nn2)[nH]c2cc(C3CC3)ccc12` [Example I-195, methyl 2-((4-(((7-chloro-8-fluoroimidazo[1,5-a]pyridin-1-yl)methyl)carbamoyl)-1H-1,2,3-triazol-1-yl)methyl)-6-cyclopropyl-1H-indole-3-carboxylate], for which the EC50 was in the range of 100 to 2000 nM. On to `COCc1nn(Cc2cn3cc(C4CC4)ccc3n2)cc1C(=O)NCc1ncn2ccc(Cl)cc12` [Example I-31, N-((7-chloroimidazo[1,5-a]pyridin-1-yl)methyl)-1-((6-cyclopropylimidazo[1,2-a]pyridin-2-yl)methyl)-3-(methoxymethyl)-1H-pyrazole-4-carboxamide], for which the concentration giving a half-maximal response (EC50) is less than 1 nM. With `O=C(NCc1ncn2ccc(Cl)c(F)c12)c1cn(Cc2cn3cc(C4CC4)cc(N4CCOC4=O)c3n2)nn1` [Example I-216, N-((7-chloro-8-fluoroimidazo[1,5-a]pyridin-1-yl)methyl)-1-((6-cyclopropyl-8-(2-oxooxazolidin-3-yl)imidazo[1,2-a]pyridin-2-yl)methyl)-1H-1,2,3-triazole-4-carboxamide], the EC50 was less than 1 nM. Turning to `O=C(NCc1ncn2ccc(Cl)c(F)c12)c1cn(Cc2cc3cc(C4CC4)ccn3n2)nn1` [Example I-175, N-((7-chloro-8-fluoroimidazo[1,5-a]pyridin-1-yl)methyl)-1-((5-cyclopropylpyrazolo[1,5-a]pyridin-2-yl)methyl)-1H-1,2,3-triazole-4-carboxamide], the concentration for a half-maximal effect (EC50) was less than 1 nM. Regarding `O=C(NCc1ncn2ccc(Cl)cc12)c1cn(Cc2cn3cc(C4CC4)ccc3n2)nc1C(F)F` [Example I-99, N-((7-chloroimidazo[1,5-a]pyridin-1-yl)methyl)-1-((6-cyclopropylimidazo[1,2-a]pyridin-2-yl)methyl)-3-(difluoromethyl)-1H-pyrazole-4-carboxamide], the concentration giving a half-maximal response (EC50) is less than 1 nM.

On to `COC(=O)CCc1nn(Cc2cn3cc(C4CC4)ccc3n2)cc1C(=O)NCc1ncn2ccc(Cl)cc12` [Example I-65, methyl 3-(4-(((7-chloroimidazo[1,5-a]pyridin-1-yl)methyl)carbamoyl)-1-((6-cyclopropylimidazo[1,2-a]pyridin-2-yl)methyl)-1H-pyrazol-3-yl)propanoate], for which the EC50 is less than 1 nM.

Regarding `CCOC(=O)C(C)(C)Oc1cc(C2CC2)cn2cc(Cn3cc(C(=O)NCc4ncn5ccc(Cl)c(F)c45)nn3)nc12` [Example I-223, ethyl 2-((2-((4-(((7-chloro-8-fluoroimidazo[1,5-a]pyridin-1-yl)methyl)carbamoyl)-1H-1,2,3-triazol-1-yl)methyl)-6-cyclopropylimidazo[1,2-a]pyridin-8-yl)oxy)-2-methylpropanoate], the EC50 was less than 1 nM. For `CC(=O)c1cc(C2CC2)cn2cc(Cn3cc(C(=O)NCc4ncn5ccc(Cl)cc45)cn3)nc12` [Example I-104a, 1-((8-acetyl-6-cyclopropylimidazo[1,2-a]pyridin-2-yl)methyl)-N-((7-chloroimidazo[1,5-a]pyridin-1-yl)methyl)-1H-pyrazole-4-carboxamide], the EC50 is less than 1 nM. Consider `O=C(NCc1ncn2ccc(Cl)c(F)c12)c1cn(Cc2cn3cc(C4CC4)cc(Br)c3n2)nn1` [Example I-204, 1-((8-bromo-6-cyclopropylimidazo[1,2-a]pyridin-2-yl)methyl)-N-((7-chloro-8-fluoroimidazo[1,5-a]pyridin-1-yl)methyl)-1H-1,2,3-triazole-4-carboxamide], for which the concentration for a half-maximal effect (EC50) was less than 1 nM.

On to `COc1c(C2CC2)ccc2nc(Cn3cc(C(=O)NCc4ncn5ccc(Cl)cc45)cn3)cn12` [Example I-142, N-((7-chloroimidazo[1,5-a]pyridin-1-yl)methyl)-1-((6-cyclopropyl-5-methoxyimidazo[1,2-a]pyridin-2-yl)methyl)-1H-pyrazole-4-carboxamide], for which the concentration giving a half-maximal response (EC50) was in the range of 1 to 10 nM. `O=C(NCc1ncn2ccc(Cl)cc12)c1nc(Cc2cn3cc(C4CC4)ccc3n2)no1` [Example I-190, N-((7-chloroimidazo[1,5-a]pyridin-1-yl)methyl)-3-((6-cyclopropylimidazo[1,2-a]pyridin-2-yl)methyl)-1,2,4-oxadiazole-5-carboxamide]: the EC50 is less than 1 nM.

`CC(C)(C#N)Cc1cc(C2CC2)cn2cc(Cn3cc(C(=O)NCc4ncn5ccc(Cl)c(F)c45)cn3)nc12` [Example I-237, N-((7-chloro-8-fluoroimidazo[1,5-a]pyridin-1-yl)methyl)-1-((8-(2-cyano-2-methylpropyl)-6-cyclopropylimidazo[1,2-a]pyridin-2-yl)methyl)-1H-pyrazole-4-carboxamide]: the EC50 was less than 1 nM. For `O=C(NCc1ncn2ccc(Cl)c(F)c12)c1cn(Cc2cn3cc(C4CC4)cc(COCCO)c3n2)nn1` [Example I-301, N-((7-chloro-8-fluoroimidazo[1,5-a]pyridin-1-yl)methyl)-1-((6-cyclopropyl-8-((2-hydroxyethoxy)methyl)imidazo[1,2-a]pyridin-2-yl)methyl)-1H-1,2,3-triazole-4-carboxamide], the EC50 is less than 1 nM. Same read-out and setting: next, `O=C(NCc1ncn2ccc(Cl)c(F)c12)c1cn(Cc2cn3ncccc3n2)nn1` [Example I-290, N-((7-chloro-8-fluoroimidazo[1,5-a]pyridin-1-yl)methyl)-1-(imidazo[1,2-b]pyridazin-2-ylmethyl)-1H-1,2,3-triazole-4-carboxamide]: 10 to 100 nM.

The assay is the same for the next values; noted with them: comparative compounds (Table II); assay format with 500 pM (500 μM in the source) activated kallikrein; read-out: Primary Dose Response Assay: Average EC50.
For the compound `COCc1nn(Cc2ccc(Cn3ccccc3=O)cc2)cc1C(=O)NCc1c(F)ccc(OC)c1F` [reference compound], the 50% effective concentration (EC50) was in the range of 10 to 100 nM.
